According to EPA's ToxRefDB 2:

How the values were obtained:
[1] = test system: rat; settings: Prenatal developmental toxicity study, sprague dawley, Oral, Gavage/Intubation, dose end: 15 GD
[2] = test system: dog; settings: Subchronic oral toxicity in nonrodent, beagle, Feed, dose end: 13 week, group: systemic, systemic / in life observation / body weight / body weight + systemic / in life observation / body weight / body weight gain + systemic / in…
[3] = test system: mouse; settings: Carcinogenicity; cd1; Oral; Feed; dose end: 102 week; group: systemic; systemic / organ weight / liver / absolute + systemic / organ weight / liver / relative to body weight
[4] = test system: mouse; settings: Carcinogenicity, cd1, Oral, Feed, dose end: 8 week, group: systemic
[5] = test system: rat; settings: Subchronic oral toxicity in rodents, sprague dawley, Feed, dose end: 90 day, group: systemic
[6] = test system: rat; settings: Combined chronic toxicity/carcinogenicity, sprague dawley, Oral, Feed, dose end: 104 week, group: systemic
[7] = test system: dog; settings: Chronic toxicity, beagle, Oral, Feed, dose end: 8 week, group: systemic
[8] = test system: dog; settings: Chronic toxicity; beagle; Oral; Feed; dose end: 52 week; group: systemic; systemic / organ weight / thyroid gland / absolute + systemic / organ weight / thyroid gland / relative to body weight + systemic / …
[9] = test system: mouse; settings: Carcinogenicity, b6c3f1, Oral, Feed, dose end: 103 week, group: systemic
[10] = test system: rat; settings: Subchronic oral toxicity in rodents, fischer, Feed, dose end: 13 week, group: systemic
[11] = test system: mouse; settings: Subchronic oral toxicity in rodents, b6c3f1, Feed, dose end: 13 week, group: systemic
[12] = test system: rat; settings: Carcinogenicity, fischer, Oral, Feed, dose end: 103 week, group: systemic
[13] = test system: rat; settings: Chronic toxicity; sprague dawley; Oral; Gavage/Intubation; dose end: 6 month; group: systemic; systemic / clinical chemistry / sodium / sodium + systemic / clinical chemistry / bilirubin / total bilirubin + systemic / clinical …
[14] = test system: rabbit; settings: Prenatal developmental toxicity study; new zealand white; Oral; Gavage/Intubation; dose end: 19 GD; group: maternal; systemic / in life observation / body weight / body weight gain
[15] = test system: rabbit; settings: Prenatal developmental toxicity study; new zealand white; Oral; Gavage/Intubation; dose end: 19 GD; group: maternal; systemic / in life observation / body weight / body weight + systemic / in life observation / body weight / body weight gain + systemic / in…
[16] = test system: rat; settings: Fertility (Segment I), sprague dawley, Oral, Gavage/Intubation, dose end: 7 GD
[17] = test system: rat; settings: Sub-acute repeat dose toxicity, sprague dawley, Oral, Gavage/Intubation, dose end: 31 day, group: systemic
[18] = test system: rat; settings: Fertility (Segment I), sprague dawley, Oral, Gavage/Intubation, dose end: 2 week, group: parental
[19] = test system: rat; settings: Prenatal developmental toxicity study, sprague dawley, Oral, Gavage/Intubation, dose end: 17 GD
[20] = test system: rat; settings: Prenatal developmental toxicity study, sprague dawley, Oral, Gavage/Intubation, dose end: 17 GD, group: maternal
[21] = test system: dog; settings: Sub-acute repeat dose toxicity; beagle; Oral; Capsule; dose end: 1 month; group: systemic; systemic / clinical chemistry / triglycerides / triglycerides
[22] = test system: rat; settings: Fertility (Segment I), sprague dawley, Oral, Gavage/Intubation, dose end: 7 GD; remark: listed apart in the source
[23] = test system: rabbit; settings: Prenatal developmental toxicity study, Dermal, Topical, dose end: 16 GD, group: maternal
[24] = test system: mouse; settings: Prenatal developmental toxicity study, CD-1, Dermal, Topical, dose end: 13 GD, group: maternal
[25] = group: developmental, developmental / developmental malformation / bone / short
[26] = group: maternal, systemic / in life observation / mortality / mortality + reproductive / reproductive performance / resorptions / resorptions
[27] = systemic / organ weight / liver / relative to body weight
[28] = systemic / organ weight / liver / relative to body weight + systemic / clinical chemistry / alkaline phosphatase (alp/alk) / alkaline …
[29] = systemic / clinical chemistry / albumin-globulin ratio / albumin-globulin ratio + systemic / clinical chemistry / phosphorus / phosphate
[30] = systemic / hematology / erythrocyte (rbc) count differential / erythrocyte (rbc) + systemic / hematology / leukocyte (wbc) count …
[31] = systemic / clinical chemistry / alanine aminotransferase (alt/sgpt) / alanine aminotransferase (alt/sgpt)
[32] = systemic / clinical chemistry / alanine aminotransferase (alt/sgpt) / alanine aminotransferase (alt/sgpt) + systemic / clinical chemistry / …
[33] = systemic / pathology microscopic / bone marrow / myelofibrosis + systemic / pathology microscopic / mammary gland / cyst + systemic / …
[34] = systemic / pathology microscopic / liver / adenoma + systemic / pathology microscopic / pituitary gland / adenoma + systemic / pathology …
[35] = systemic / in life observation / body weight / body weight + systemic / pathology microscopic / bone / osteopetrosis + systemic / pathology …
[36] = systemic / pathology microscopic / bone / osteopetrosis + systemic / in life observation / body weight / body weight
[37] = systemic / in life observation / mortality / mortality + systemic / pathology microscopic / adrenal gland / vacuolization cytoplasmic + …
[38] = systemic / pathology microscopic / uterus / hyperplasia
[39] = systemic / in life observation / body weight / body weight gain
[40] = systemic / in life observation / body weight / body weight gain + systemic / pathology microscopic / eye / cataract + systemic / pathology …
[41] = group: maternal, reproductive / reproductive performance / estrous cycle / abnormal + reproductive / reproductive performance / estrous cycle / corpora lutea…
[42] = group: parental, systemic / in life observation / clinical signs / fur (altered appearance) + systemic / in life observation / clinical signs / salivation
[43] = group: parental, systemic / in life observation / clinical signs / fur (altered appearance) + systemic / in life observation / clinical signs / salivation + …
[44] = systemic / clinical chemistry / albumin / albumin + systemic / clinical chemistry / phosphorus / phosphorus + systemic / clinical chemistry…
[45] = systemic / hematology / reticulocyte / reticulocyte + systemic / pathology microscopic / lung / histiocytosis + systemic / hematology / …
[46] = systemic / in life observation / body weight / body weight + systemic / in life observation / body weight / body weight gain + systemic / in…
[47] = group: developmental, systemic / in life observation / body weight / fetal weight
[48] = group: maternal, systemic / in life observation / clinical signs / piloerection
[49] = reproductive / reproductive performance / postimplantation loss / postimplantation loss + systemic / in life observation / body weight / …
[50] = group: parental, systemic / in life observation / clinical signs / piloerection
[51] = group: parental, systemic / in life observation / clinical signs / piloerection + systemic / in life observation / body weight / body weight + systemic / in …
[52] = systemic / in life observation / body weight / body weight gain + systemic / in life observation / clinical signs / erythema + systemic / in…

## C=CCC1=C(C)[C@@H](OC(=O)[C@@H]2[C@@H](C=C(C)C)C2(C)C)CC1=O [S-Bioallethrin]
[1]; [25]
  LEL: 50 mg/kg/day
  LOAEL: 50 mg/kg/day
  NEL: < 50 mg/kg/day
  NOAEL: < 50 mg/kg/day
[1]; group: maternal, systemic / in life observation / mortality / mortality
  LOAEL: 195 mg/kg/day
[1]; [26]
  LEL: 195 mg/kg/day
  NEL: 125 mg/kg/day
  NOAEL: 125 mg/kg/day
[2]
  LEL: 90.5 mg/kg/day
  LOAEL: 90.5 mg/kg/day
  NEL: 38.5 mg/kg/day
  NOAEL: 38.5 mg/kg/day
[3]
  LEL: 214 mg/kg/day
  LOAEL: > 214 mg/kg/day
  NEL: 41.9 mg/kg/day
  NOAEL: ≥ 214 mg/kg/day
[4]; [27]
  LEL: 420 mg/kg/day
  LOAEL: 420 mg/kg/day
[4]; [28]
  NEL: 229 mg/kg/day
  NOAEL: 229 mg/kg/day
[5]; [29]
  LEL: 20.6 mg/kg/day
  NEL: < 20.6 mg/kg/day
[5]; [30]
  LOAEL: 36.6 mg/kg/day
  NOAEL: 18.5 mg/kg/day
[6]; [31]
  LEL: 7.2 mg/kg/day
  LOAEL: 82.6 mg/kg/day
  NEL: < 7.2 mg/kg/day
[6]; systemic / clinical chemistry / alanine aminotransferase (alt/sgpt) / alanine aminotransferase (alt/sgpt) + systemic / pathology microscopic…
  NOAEL: 27 mg/kg/day
[7]; [32]
  LOAEL: 63.2 mg/kg/day
  NEL: 4.5 mg/kg/day
  NOAEL: 19.5 mg/kg/day
[7]; systemic / organ weight / liver / absolute + systemic / organ weight / liver / relative to body weight
  LEL: 19.5 mg/kg/day
[8]
  LEL: 2.7 mg/kg/day
  LOAEL: 13.7 mg/kg/day
  NEL: < 2.7 mg/kg/day
  NOAEL: 2.7 mg/kg/day

## C[C@H]1CCCC(=O)CCC/C=C/c2cc(O)cc(O)c2C(=O)O1 [Zearalenone]
[9]; [33]
  LEL: 7.5 mg/kg/day
  NEL: < 7.5 mg/kg/day
[9]; [34]
  LOAEL: > 15 mg/kg/day
  NOAEL: ≥ 15 mg/kg/day
[10]; [35]
  LOAEL: > 150 mg/kg/day
  NOAEL: ≥ 150 mg/kg/day
[10]; [36]
  LEL: 1.5 mg/kg/day
  NEL: < 1.5 mg/kg/day
[11]; [37]
  LOAEL: > 450 mg/kg/day
  NOAEL: ≥ 450 mg/kg/day
[11]; [38]
  LEL: 4.5 mg/kg/day
  NEL: < 4.5 mg/kg/day
[12]; [39]
  LOAEL: 2.5 mg/kg/day
[12]; [40]
  LEL: 1.25 mg/kg/day
  NEL: < 1.25 mg/kg/day
  NOAEL: 1.25 mg/kg/day

## COc1ccc2cc(S(=O)(=O)N[C@H](CC(=O)N[C@H](Cc3ccc(CN4[C@H](C)CCC[C@@H]4C)cc3)C(=O)N(C)C(C)C)c3ccc4c(c3)OCO4)ccc2c1.Cl
[13]
  LEL: 10 mg/kg/day
  LOAEL: > 100 mg/kg/day
  NEL: < 10 mg/kg/day
  NOAEL: ≥ 100 mg/kg/day
[14]
  LEL: 120 mg/kg/day
  LOAEL: > 120 mg/kg/day
  NEL: 60 mg/kg/day
  NOAEL: ≥ 120 mg/kg/day
[15]
  LEL: 100 mg/kg/day
  LOAEL: 100 mg/kg/day
  NEL: 50 mg/kg/day
  NOAEL: 50 mg/kg/day
[16]; [41]
  LEL: 180 mg/kg/day
  LOAEL: > 180 mg/kg/day
  NEL: 60 mg/kg/day
  NOAEL: ≥ 180 mg/kg/day
[16]; [42]
  LEL: 20 mg/kg/day
  NEL: < 20 mg/kg/day
[16]; [43]
  LOAEL: > 180 mg/kg/day
  NOAEL: ≥ 180 mg/kg/day
[17]; [44]
  LOAEL: 60 mg/kg/day
  NOAEL: 20 mg/kg/day
[17]; [45]
  LEL: 20 mg/kg/day
  NEL: < 20 mg/kg/day
[18]; [46]
  LOAEL: 150 mg/kg/day
  NEL: 20 mg/kg/day
  NOAEL: 60 mg/kg/day
[18]; systemic / in life observation / clinical signs / salivation
  LEL: 60 mg/kg/day
[19]; [47]
  LEL: 120 mg/kg/day
  LOAEL: 120 mg/kg/day
  NEL: 60 mg/kg/day
  NOAEL: 60 mg/kg/day
[19]; [48]
  LEL: 30 mg/kg/day
  NEL: < 30 mg/kg/day
[19]; group: maternal, systemic / in life observation / clinical signs / piloerection + systemic / in life observation / food consumption / food consumption
  LOAEL: 60 mg/kg/day
[19]; group: maternal, systemic / in life observation / clinical signs / piloerection + systemic / in life observation / food consumption / food consumption + …
  NOAEL: 30 mg/kg/day
[20]; reproductive / reproductive performance / postimplantation loss / postimplantation loss
  LEL: 60 mg/kg/day
[20]; [49]
  LOAEL: > 180 mg/kg/day
  NEL: 20 mg/kg/day
  NOAEL: ≥ 180 mg/kg/day
[21]
  LEL: 10 mg/kg/day
  LOAEL: 10 mg/kg/day
  NEL: < 10 mg/kg/day
  NOAEL: < 10 mg/kg/day
[22]; [41]
  LEL: 180 mg/kg/day
  LOAEL: 180 mg/kg/day
  NEL: 60 mg/kg/day
  NOAEL: 60 mg/kg/day
[22]; [50]
  LEL: 20 mg/kg/day
  NEL: < 20 mg/kg/day
[22]; [51]
  LOAEL: 180 mg/kg/day
  NOAEL: 60 mg/kg/day

## CCCCCCCCCCC(C)c1ccc(S(=O)(=O)O)cc1 (configuration not stated) [Alkylbenzenesulfonate, linear]
[23]; [39]
  LEL: 9 mg/kg/day
[23]; [52]
  LOAEL: > 90 mg/kg/day
  NEL: 0.9 mg/kg/day
  NOAEL: ≥ 90 mg/kg/day
[24]; reproductive / offspring survival early / dead fetuses / dead fetuses + systemic / in life observation / clinical signs / irritability
  LEL: 50 mg/kg/day
[24]; systemic / in life observation / body weight / body weight gain + systemic / in life observation / clinical signs / erythema + reproductive…
  LOAEL: 500 mg/kg/day
[24]; [52]
  NEL: 5 mg/kg/day
  NOAEL: 50 mg/kg/day
